pEC50, pIC50: −log10 of the molar value.
What was measured:
[1] = system: thoracic aorta; assay: Extracted rat aorta, relaxation of KCl-induced constriction (Test Example 1); type: cell-based, male Sprague Dawley rat; settings: relaxation of continuous constriction caused by 30 mM potassium chloride, rat aorta ring; read-out: 50% inhibitory concentration (IC50)
Procedure: (§1) A thoracic aorta was extracted from male Sprague Dawley rat (450-600 g) to prepare a ring-formed sample having a width of 2 mm. The resulting sample was suspended at a tension of 2 g in an organ bath containing Krebs-Henseleit solution, and a gas composed of 95% oxygen and 5% carbon dioxide was passed therethrough. A constriction reaction of the sample was recorded isometrically by a FD pick-up. After equilibration for 1 to 1.5 hour, 30 mM potassium chloride was added in order to constrict the tissue, and an activity of the test compound for relaxing the continuous constriction caused by potassium chloride was evaluated by determining a 50% inhibitory concentration (IC50). As comparative compounds, N-(2-cyanoethyl)-2,2-dimethyl-6-nitro-2H-1-benzopyran-4-carbamide (Compound A) disclosed in WO 92/02514 and 6-trifluoromethyl--N-methyl-2,2-dimethyl-2H-1-benzopyran-4-carbothioamide (Compound B) disclosed in WO 92/14439 were used.

[2] = system: thoracic aorta; assay: Extracted rat aorta, relaxation of KCl-induced constriction relative to maximum relaxation (Test Example 2); type: cell-based, male Sprague Dawley rat; settings: relaxation of continuous constriction caused by 30 mM potassium chloride, rat aorta ring, 2 ml organ bath; read-out: 50% inhibitory concentration (EC50) relative to the maximum relaxation effect of the compound
Procedure: as §1, with “in a 2 ml” for “in an”, “concentration (EC50) of the compound relative to the maximum relaxation effect of the compound.” for “concentration (IC50). As comparative compounds, N-(2-cyanoethyl)-2,2-dimethyl-6-nitro-2H-1-benzopyran-4-carbamide (Compound A) disclosed in WO 92/02514 and 6-trifluoromethyl--N-methyl-2,2-dimethyl-2H-1-benzopyran-4-carbothioamide (Compound B) disclosed in WO 92/14439 were used.”

| pIC50 [1] | pEC50 [2] | SMILES |
| --- | --- | --- |
| 8.55 |  | CC1(C)C=C(C(=O)NCCC#N)c2cc([N+](=O)[O-])ccc2O1 [Compound A, N-(2-cyanoethyl)-2,2-dimethyl-6-nitro-2H-1-benzopyran-4-carbamide, reference compound] |
|  | 10.68 | N#CCCNC(=S)C1=CC(CF)(CF)Oc2ccc(C(F)(F)F)cc21 [Compound 3, N-(2-cyanoethyl)-2,2-bisfluoromethyl-6-tri-fluoromethyl-2H-1-benzopyran-4-carbothioamide] |
|  | 6.77 | CC1(C)Oc2ccc(C#N)cc2C(N2CCCC2=O)C1O (stereo not shown) [Cromakalim, cromakalim, reference compound] |
| 8.72 |  | CNC(=S)C1=CC(C)(C)Oc2ccc(C(F)(F)F)cc21 [Compound B, 6-trifluoromethyl--N-methyl-2,2-dimethyl-2H-1-benzopyran-4-carbothioamide, reference compound] |
| 9.62 |  | CC1(C)C=C(C(=O)NCCC#N)c2cc(C(F)(F)C(F)(F)F)ccc2O1 [Compound 1, N-(2-cyanoethyl)-6-pentafluoroethyl-2,2-dimethyl-2H-1-benzopyran-4-carbamide] |
|  | 10.72 | N#CCCNC(=S)C1=CC(CF)(CF)Oc2ccc(C(F)(F)C(F)(F)F)cc21 [Compound 4, N-(2-cyanoethyl)-6-pentafluoroethyl-2,2-bis-fluoromethyl-2H-1-benzopyran-4-carbothioamide] |
| 9.06 |  | CC1(C)C=C(C(=S)NCCC#N)c2cc(C(F)(F)C(F)(F)F)ccc2O1 [Compound 2, N-(2-cyanoethyl)-6-pentafluoroethyl-2,2-dimethyl-2H-1-benzopyran-4-carbothioamide] |

— US5646310A, “N-(2-cyanoethyl)-6-fluoroalkyl-2h-1-benzopyran derivatives” (Chugai Seiyaku Kabushiki Kaisha, priority 1993, dated 1997)
